Where a SMILES comes first, the peptide text is derived from it. Bridges are numbered along the chain shown (N, C = ends).
Key:
[1] = target: T1, C1a receptor (C1a-type calcitonin receptor) (Rattus norvegicus, UniProt P32214); experiment: C1a/293 competitive binding, displacement of [125I]-human calcitonin (Example C); settings: HEK293 plasma membranes (C1a/293), [125I]-human calcitonin 20 pM
T1 construct: expressed in transfected cells
T1 sequence (P32214 25-479 isoform P32214-2 limits assumed): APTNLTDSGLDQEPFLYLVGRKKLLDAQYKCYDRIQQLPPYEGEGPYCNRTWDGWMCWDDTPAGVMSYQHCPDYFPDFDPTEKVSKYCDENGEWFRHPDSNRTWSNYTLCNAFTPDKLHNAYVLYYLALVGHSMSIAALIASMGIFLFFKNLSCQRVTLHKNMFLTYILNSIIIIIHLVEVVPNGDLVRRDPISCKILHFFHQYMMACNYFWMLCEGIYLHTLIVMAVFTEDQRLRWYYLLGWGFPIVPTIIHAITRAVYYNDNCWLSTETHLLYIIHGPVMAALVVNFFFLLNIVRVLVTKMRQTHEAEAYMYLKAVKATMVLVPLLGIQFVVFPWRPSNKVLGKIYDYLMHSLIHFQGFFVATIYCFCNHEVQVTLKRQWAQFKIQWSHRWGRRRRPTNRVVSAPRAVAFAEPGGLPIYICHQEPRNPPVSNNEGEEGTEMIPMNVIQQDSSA
Experimental: Peptide compounds of the present invention may be evaluated for binding to the C1a receptor using the procedures described in Example C. The C1a receptor is the predominant mammalian calcitonin receptor subtype. C1a pcDNA construction and transfection were carried out as previously described (Albrandt et al. 1993, FEBS Letters, 325:225-232). HEK293 cell lines showing stable expression of the rat C1a-type calcitonin receptor (C1a/293) or the human C1a-type calcitonin receptor (1154/293) were selected by G418 resistance and limiting dilution culture methods. Plasma membranes were collected from homogenized HEK293 cells and used in the receptor binding assay. Individual test peptides at concentrations spanning 6 log units starting at around 10^-6 M were examined for their ability to displace [^125 I]-human calcitonin from the plasma membrane preparation using a 96-well microtiter plate format and scintillation counting with a Wallac LKB Beta plate counter. Competitive binding curves were constructed. Non-specific binding was measured in the presence of 100 nM calcitonin. Peptide potencies (IC50 's for competitive binding) were calculated by non-linear regression using Prism™ (version 2.01, GraphPAD Software, San Diego, Calif.).
C1a/293 Competitive Binding Studies:
Compounds were evaluated for competition in binding to the C1a receptor as follows:
Reference peptides used in these studies were purchased from Bachem (Torrance, Calif.). All other chemicals were of the highest commercial grade. [^35 S]-GTPγS was purchased from NEN Life Science Products, Inc., Pittsburgh, Pa. [^125 I]-human calcitonin was purchased from Amersham Pharmacia Biotech, Inc., Piscataway, N.J.
Methods for C1a pcDNA construction and transfection have been previously described (Albrandt, et al. 1993). HEK293 cell lines stably expressing the rat C1a-type calcitonin receptor (C1a/293) or the human C1a-type calcitonin receptor (1154/293) were selected by G418 resistance and limiting dilution culture methods.
Confluent cells were detached from tissue culture flasks by incubation with 5 mM EDTA in PBS. Cells were homogenized in ice-cold 20 mM HEPES, pH 7.4 with a Polytron homogenizer. Plasma membranes were collected using three cycles of washing in fresh buffer followed by centrifugation for 15 minutes at 48,000×g. The final membrane pellet was resuspended in 20 mM HEPES buffer containing 0.2 mM phenylmethylsulfonyl fluoride (PMSF) and stored at -70° C.
Assay buffer contained 5 μg/mL bestatin, 1 μg/mL phosphoramidon, 1 mg/mL bovine serum albumin (fraction V), 1 mg/mL bacitracin, 1 mM MgCl2, and 20 mM HEPES, pH 7.4. Membranes (2-5 μg membrane protein/well), [^125 I]-human calcitonin (20 pM), and peptides were combined in 200 μL buffer in 96-well microtiter plates. After a 60 minute incubation at room temperature, well contents were harvested onto polyethyleneimine-treated GF/B glass fiber pads using a Tomtec Mach II plate harvestor (Hamden, Conn.). Dried pads were combined with scintillant and counted on a Wallac LKB Beta Plate scintillation counter (Gaithersburg, Md.). For competitive binding curves, samples were run in duplicate over a 6 log concentration range starting at 10^-6 or 10^-7 M. Non-specific binding was measured in the presence of 100 nM human calcitonin.

[2] = tested on: gastric emptying in conscious rats; settings: rat, in vivo
Source text: Peptide compounds of the present invention may be evaluated for amylin agonist activity using the methods of measuring the rate of gastric emptying disclosed in, for example, Young et al., Diabetologia, 38(6):642-648 (1995). In a phenol red method, which is described in Example D below, conscious rats receive by gavage an a caloric gel containing methyl cellulose and a phenol red indicator. Twenty minutes after gavage, animals are anesthetized using halothane, the stomach exposed and clamped at the pyloric and lower esophageal sphincters, removed and opened into an alkaline solution. Stomach content may be derived from the intensity of the phenol red in the alkaline solution, measured by absorbance at a wavelength of 560 nm. In a tritiated glucose method, conscious rats are gavaged with tritiated glucose in water. The rats are gently restrained by the tail, the tip of which is anesthetized using lidocaine. Tritium in the plasma separated from tail blood is collected at various timepoints and detected in a beta counter. Test compounds are normally administered about one minute before gavage.
Phenol Red Gastric Emptying Assay:
Gastric emptying was measured using a modification (Plourde et al., Life Sci. 53:857-862 (1993)) of the original method of Scarpignato et al. (Arch. Int. Pharmacodyn. Ther. 246:286-295 (1980)). Conscious rats received by gavage. 1.5 mL of an a caloric gel containing 1.5% methyl cellulose (M-0262, Sigma Chemical Co., St. Louis, Mo.) and 0.05% phenol red indicator. Twenty minutes after gavage, rats were anesthetized using 5% halothane, the stomach exposed and clamped at the pyloric and lower esophageal sphincters using artery forceps, removed and opened into an alkaline solution which was made up to a fixed volume. Stomach content was derived from the intensity of the phenol red in the alkaline solution, measured by absorbance at a wavelength of 560 nm. […] In other experiments, particulate gastric contents were centrifuged to clear the solution for absorbance measurements. Where the diluted gastric contents remained turbid, the spectroscopic absorbance due to phenol red was derived as the difference between that present in alkaline versus acidified dilutent.
In separate experiments on 7 rats, the stomach and small intestine were both excised and opened into an alkaline solution. […] Percent gastric emptying contents remaining=(absorbance at 20 min)/(absorbance at 0 min). For those compounds for which ED50 data is presented, dose response curves for gastric emptying were fitted to a 4-parameter logistic model using a least-squares iterative routine (ALLFIT, v2.7, NIH, Bethesda, Md.) to derive ED50 s. Because ED50 is log-normally distributed, it is expressed ± standard error of the logarithm. Pairwise comparisons were performed using one-way analysis of variance and the Student-Newman-Keuls multiple comparisons test (Instat v2.0, GraphPad Software, San Diego, Calif.) using P<0.05 as the level of significance.
As a reference point for dose response studies, rat amylin (Bachem, Torrance, Calif.) dissolved in 0.15M saline, was administered as a 0.1 mL subcutaneous bolus in doses of 0, 0.01, 0.1, 1, 10 or 100 μg 5 minutes before gavage in Harlan Sprague Dawley (non-diabetic) rats fasted 20 hours and diabetic BB rats fasted 6 hours.

CC(C)C[C@H](NC(=O)[C@H](CCCNC(=N)N)NC(=O)[C@H](C)NC(=O)[C@@H](NC(=O)[C@H](C)NC(=O)[C@@H]1CSSC[C@H](NC(=O)[C@@H](N)CCCCN)C(=O)N[C@@H](CC(N)=O)C(=O)N[C@@H]([C@@H](C)O)C(=O)N[C@@H](C)C(=O)N[C@@H]([C@@H](C)O)C(=O)N1)[C@@H](C)O)C(=O)N[C@@H](C)C(=O)N[C@@H](C)C(=O)N[C@@H](Cc1ccccc1)C(=O)N[C@@H](CC(C)C)C(=O)N[C@@H](C)C(=O)N[C@@H](CCCNC(=N)N)C(=O)N[C@@H](CO)C(=O)N[C@@H](CO)C(=O)NCC(=O)N[C@@H](Cc1ccc(O)cc1)C(N)=O [Example 1] (H-KCNTATCATARLAAFLARSSGY-NH2; disulfide 2-7)
IC50 [1]: 0.093 nM
Example D ED50 [2]: 0.26 µg

CC(C)C[C@H](NC(=O)[C@H](CCCNC(=N)N)NC(=O)[C@H](C)NC(=O)[C@@H](NC(=O)[C@H](C)NC(=O)[C@@H]1CSSC[C@H](N)C(=O)N[C@@H](CC(N)=O)C(=O)N[C@@H]([C@@H](C)O)C(=O)N[C@@H](C)C(=O)N[C@@H]([C@@H](C)O)C(=O)N1)[C@@H](C)O)C(=O)N[C@@H](C)C(=O)N[C@@H](C)C(=O)N[C@@H](Cc1ccccc1)C(=O)N[C@@H](CC(C)C)C(=O)N[C@@H](C)C(=O)N[C@@H](CCCNC(=N)N)C(=O)N[C@@H](CO)C(N)=O [Example 3] (H-CNTATCATARLAAFLARS-NH2; disulfide 1-6)
IC50 [1]: 0.19 nM
Example D ED50 [2]: 0.45 µg

CC(C)C[C@H](NC(=O)[C@H](CCCNC(=N)N)NC(=O)[C@H](C)NC(=O)[C@@H](NC(=O)[C@H](C)NC(=O)[C@@H]1CSSC[C@H](NC(=O)[C@@H](N)CCCCN)C(=O)N[C@@H](CC(N)=O)C(=O)N[C@@H]([C@@H](C)O)C(=O)N[C@@H](C)C(=O)N[C@@H]([C@@H](C)O)C(=O)N1)[C@@H](C)O)C(=O)N[C@@H](C)C(=O)N[C@@H](CC(N)=O)C(=O)N[C@@H](Cc1ccccc1)C(=O)N[C@@H](CC(C)C)C(=O)N[C@H](C(=O)N[C@@H](CCCNC(=N)N)C(=O)N[C@@H](CO)C(=O)N[C@@H](CO)C(=O)NCC(=O)N[C@@H](Cc1ccc(O)cc1)C(N)=O)C(C)C [Example 5] (H-KCNTATCATARLANFLVRSSGY-NH2; disulfide 2-7)
IC50 [1]: 1.4 nM
Example D ED50 [2]: 9.3 µg

CC(C)C[C@H](NC(=O)[C@H](CCCNC(=N)N)NC(=O)[C@H](C)NC(=O)[C@@H](NC(=O)[C@H](C)NC(=O)[C@H](C)NC(=O)[C@@H](NC(=O)[C@H](CO)NC(=O)[C@@H](N)CC(C)C)[C@@H](C)O)[C@@H](C)O)C(=O)N[C@@H](C)C(=O)N[C@@H](C)C(=O)N[C@@H](Cc1ccccc1)C(=O)N[C@@H](CC(C)C)C(=O)N[C@@H](C)C(=O)N[C@@H](CCCNC(=N)N)C(=O)N[C@@H](CO)C(N)=O [Example 6] (H-LSTAATARLAAFLARS-NH2)
IC50 [1]: 1.4 nM
Example D ED50 [2]: 1.34 µg
